According to patent publication US20240199634A1, “CYCLIC COMPOUNDS AND METHODS OF USING SAME” (SCHRÖDINGER, INC., priority 2021, published 2024):

Biological target: T1, Full length human CDC7 protein co-expressed with DBF4 (Homo sapiens, UniProt O00311)
T1 construct: Full length human CDC7 protein co-expressed with DBF4; purchased SignalChem (China)
Assay: CDC7 Kinase Biochemical Assay (ADP-Glo, PDKtide substrate)
Conditions: 0.1 nM CDC7/DBF4, 1 μM ATP, 10 μM PDKtide, 4 h reaction
Experimental: CDC7 Kinase Biochemical Assay PROTOCOL:
Full length human CDC7 protein co-expressed with DBF4 was purchased from SignalChem (China). CDC7 kinase activity was determined with PDKtide (SignalChem) as a substrate and by measuring ADP production using the ADP-Glo™ Kinase Assay kit (Promega) following the manufacturer's instructions. The kinase reaction was performed using the following conditions: Buffer: 40 mM Tris pH 7.5, 20 mM MgCl2, 0.1 mg/mL BSA and 50 μM DTT. Final reaction mix contained 0.1 nM CDC7/DBF4, 1 μM ATP and 10 μM PDKtide. The kinase reaction time was 4 h. The ADP-Glo signal was measured using an EnVision plate reader (PerkinELmer).
Percent inhibition of CDC7 kinase activity was calculated based on the following formula:
[formula] • SSample: the signal of compounds • SHigh Ctrl: the signal of high control (DMSO) • SLow Ctrl: the signal of low control (positive control CDC7 inhibitor)

T1 sequence (O00311 whole entry): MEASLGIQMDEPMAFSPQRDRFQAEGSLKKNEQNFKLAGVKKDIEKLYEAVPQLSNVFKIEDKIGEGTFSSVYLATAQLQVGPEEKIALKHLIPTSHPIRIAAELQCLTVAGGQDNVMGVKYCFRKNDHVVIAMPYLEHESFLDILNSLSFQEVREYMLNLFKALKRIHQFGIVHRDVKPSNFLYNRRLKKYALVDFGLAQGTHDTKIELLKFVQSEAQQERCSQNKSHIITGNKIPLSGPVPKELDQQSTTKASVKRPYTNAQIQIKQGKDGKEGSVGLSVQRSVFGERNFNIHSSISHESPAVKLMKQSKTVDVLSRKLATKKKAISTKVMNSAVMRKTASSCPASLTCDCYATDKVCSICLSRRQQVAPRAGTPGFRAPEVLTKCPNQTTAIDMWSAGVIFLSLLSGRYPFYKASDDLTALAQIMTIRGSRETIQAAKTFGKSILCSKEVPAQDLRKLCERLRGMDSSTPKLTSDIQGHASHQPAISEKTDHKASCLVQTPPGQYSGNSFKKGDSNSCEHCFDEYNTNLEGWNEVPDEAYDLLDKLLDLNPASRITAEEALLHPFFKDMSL
T1 sequence (Q9UBU7 whole entry partner): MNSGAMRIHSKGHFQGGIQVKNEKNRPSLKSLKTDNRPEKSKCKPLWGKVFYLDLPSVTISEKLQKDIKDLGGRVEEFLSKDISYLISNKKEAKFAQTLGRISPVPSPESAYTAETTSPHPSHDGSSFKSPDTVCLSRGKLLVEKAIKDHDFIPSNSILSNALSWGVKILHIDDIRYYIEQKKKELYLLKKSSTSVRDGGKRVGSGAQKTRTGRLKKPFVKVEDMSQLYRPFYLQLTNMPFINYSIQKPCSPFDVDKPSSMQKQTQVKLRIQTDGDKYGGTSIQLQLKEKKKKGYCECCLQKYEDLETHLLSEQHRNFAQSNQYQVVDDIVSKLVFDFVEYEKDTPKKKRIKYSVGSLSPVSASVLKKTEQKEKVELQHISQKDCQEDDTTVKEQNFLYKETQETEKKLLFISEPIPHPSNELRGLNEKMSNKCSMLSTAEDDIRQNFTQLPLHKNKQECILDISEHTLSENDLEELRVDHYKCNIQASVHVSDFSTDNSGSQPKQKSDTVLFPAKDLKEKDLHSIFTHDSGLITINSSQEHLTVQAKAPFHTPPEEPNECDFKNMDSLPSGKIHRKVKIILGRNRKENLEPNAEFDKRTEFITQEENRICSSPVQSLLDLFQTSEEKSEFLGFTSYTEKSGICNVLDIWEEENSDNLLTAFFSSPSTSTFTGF

Row | Compound | IC50 [nM]
1 | O=c1[nH]c2c(c3cc(-c4cn[nH]c4)sc13)CCC[C@@H]2O (single isomer, unassigned) [Compound 3] | 1 to 10
2 | O=c1[nH]c2c(c3cc(-c4cn[nH]c4)sc13)CCC[C@H]2O (single isomer, unassigned) [Compound 4] | ≤ 1
3 | O=c1[nH]c2c(c3cc(-c4cn[nH]c4)sc13)CCC[C@H]2N1CCC(F)(F)C1 (single isomer, unassigned) [Compound 5] | ≤ 1
4 | O=c1[nH]c2c(c3cc(-c4cn[nH]c4)sc13)CCC[C@@H]2N1CCC(F)(F)C1 (single isomer, unassigned) [Compound 6] | > 10
5 | CO[C@H]1COCc2c1[nH]c(=O)c1sc(-c3cn[nH]c3)cc21 (single isomer, unassigned) [Compound 10] | ≤ 1
6 | CO[C@@H]1COCc2c1[nH]c(=O)c1sc(-c3cn[nH]c3)cc21 (single isomer, unassigned) [Compound 11] | > 10
7 | O=c1[nH]c2c(c3cc(-c4cn[nH]c4)sc13)CC(F)(F)C[C@H]2N1CCC1 (single isomer, unassigned) [Compound 12] | 1 to 10
8 | O=c1[nH]c2c(c3cc(-c4cn[nH]c4)sc13)CC(F)(F)C[C@@H]2N1CCC1 (single isomer, unassigned) [Compound 13] | ≤ 1
9 | CC(C)(C)[C@]1(O)COCc2c1[nH]c(=O)c1sc(-c3cn[nH]c3)cc21 (single isomer, unassigned) [Compound 21] | 1 to 10
10 | CC(C)(C)[C@]1(O)COCc2c1[nH]c(=O)c1sc(-c3ccncc3)cc21 (single isomer, unassigned) [Compound 23] | > 10
11 | Cc1n[nH]cc1-c1cc2c3c([nH]c(=O)c2s1)C(O)(C(C)C)COC3 (single isomer, unassigned) [Compound 24] | ≤ 1
12 | Cc1n[nH]cc1-c1cc2c3c([nH]c(=O)c2s1)C(O)(C(C)C)COC3 (single isomer, unassigned) [Compound 25] | 1 to 10
13 | CC(C)C1(O)COCc2c1[nH]c(=O)c1sc(-c3c[nH]nc3F)cc21 (single isomer, unassigned) [Compound 26] | 1 to 10
14 | O=c1[nH]c2c(c3cc(-c4cn[nH]c4)sc13)COCC2(O)C(F)(F)F (single isomer, unassigned) [Compound 28] | ≤ 1
15 | O=c1[nH]c2c(c3cc(-c4cn[nH]c4)sc13)COCC2(O)C(F)(F)F (single isomer, unassigned) [Compound 29] | 1 to 10
16 | Cn1nccc1-c1cc2c3c([nH]c(=O)c2s1)C(O)(C(F)(F)F)COC3 (single isomer, unassigned) [Compound 31] | 1 to 10
17 | Cc1n[nH]cc1-c1cc2c3c([nH]c(=O)c2s1)C(O)(C(F)(F)F)COC3 (single isomer, unassigned) [Compound 33] | 1 to 10
18 | COC1(C)CCCc2[nH]c(=O)c3sc(-c4cn[nH]c4)cc3c21 (single isomer, unassigned) [Compound 38] | 1 to 10
19 | COC1(C)CCCc2[nH]c(=O)c3sc(-c4cn[nH]c4)cc3c21 (single isomer, unassigned) [Compound 39] | ≤ 1
20 | CC(C)C1(O)COCc2c1[nH]c(=O)c1sc(-c3ccncc3)cc21 (single isomer, unassigned) [Compound 45] | > 10

Row | Compound | IC50 [nM]
21 | CC(C)C1(O)COCc2c1[nH]c(=O)c1sc(-c3ccns3)cc21 (single isomer, unassigned) [Compound 47] | > 10
22 | CC(C)(O)C1(C)OCCc2c1[nH]c(=O)c1sc(-c3cn[nH]c3)cc21 (single isomer, unassigned) [Compound 56] | > 10
23 | CC(C)(O)C1(C)OCCc2c1[nH]c(=O)c1sc(-c3cn[nH]c3)cc21 (single isomer, unassigned) [Compound 57] | 1 to 10
24 | CC(C)(C)C1(O)COCc2c1[nH]c(=O)c1sc(-c3ccncc3F)cc21 (single isomer, unassigned) [Compound 60] | 1 to 10
25 | Cc1cc(-c2cc3c4c([nH]c(=O)c3s2)C(O)(C(C)(C)C)COC4)ccn1 (single isomer, unassigned) [Compound 61] | ≤ 1
26 | Cc1cc(-c2cc3c4c([nH]c(=O)c3s2)C(O)(C(C)(C)C)COC4)ccn1 (single isomer, unassigned) [Compound 62] | > 10
27 | CC(C)(C)C1(O)COCc2c1[nH]c(=O)c1sc(-c3ncncc3Cl)cc21 (single isomer, unassigned) [Compound 63] | ≤ 1
28 | CC(C)(C)C1(O)COCc2c1[nH]c(=O)c1sc(-c3ncncc3Cl)cc21 (single isomer, unassigned) [Compound 64] | 1 to 10
29 | CC(C)(C)C1(O)COCc2c1[nH]c(=O)c1sc(-c3c[nH]nc3F)cc21 (single isomer, unassigned) [Compound 65] | > 10
30 | CC(C)(C)C1(O)COCc2c1[nH]c(=O)c1sc(-c3c[nH]nc3F)cc21 (single isomer, unassigned) [Compound 66] | ≤ 1
31 | CC(C)(C)C1(O)COCc2c1[nH]c(=O)c1sc(-c3ccnnc3)cc21 (single isomer, unassigned) [Compound 67] | ≤ 1
32 | CC(C)(C)C1(O)COCc2c1[nH]c(=O)c1sc(-c3ccnnc3)cc21 (single isomer, unassigned) [Compound 68] | > 10
33 | Cc1cnccc1-c1cc2c3c([nH]c(=O)c2s1)C(O)(C(C)(C)C)COC3 (single isomer, unassigned) [Compound 70] | > 10
34 | CC#CC1(O)COCc2c1[nH]c(=O)c1sc(-c3cn[nH]c3)cc21 (single isomer, unassigned) [Compound 72] | 1 to 10
35 | CC#CC1(O)COCc2c1[nH]c(=O)c1sc(-c3cn[nH]c3)cc21 (single isomer, unassigned) [Compound 73] | > 10
36 | O=c1[nH]c2c(c3cc(-c4cn[nH]c4)sc13)COCC2(O)C1CCCC1 (single isomer, unassigned) [Compound 78] | ≤ 1
37 | O=c1[nH]c2c(c3cc(-c4cn[nH]c4)sc13)COCC2(O)C1CCCC1 (single isomer, unassigned) [Compound 79] | 1 to 10
38 | CCC(C)(C)C1(O)COCc2c1[nH]c(=O)c1sc(-c3cn[nH]c3)cc21 (single isomer, unassigned) [Compound 80] | > 10
39 | CCC(C)(C)C1(O)COCc2c1[nH]c(=O)c1sc(-c3cn[nH]c3)cc21 (single isomer, unassigned) [Compound 81] | ≤ 1

More lines, now with the values ahead:

Row | IC50 [nM] | Compound
40 | 1 to 10 | C[C@]1(CO)CC(F)(F)Cc2c1[nH]c(=O)c1sc(-c3cn[nH]c3)cc21 (single isomer, unassigned) [Compound 14]
41 | ≤ 1 | C[C@@]1(CO)CC(F)(F)Cc2c1[nH]c(=O)c1sc(-c3cn[nH]c3)cc21 (single isomer, unassigned) [Compound 15]
42 | 1 to 10 | CC(C)C1(O)COCc2c1[nH]c(=O)c1sc(-c3cn[nH]c3)cc21 (single isomer, unassigned) [Compound 17]
43 | > 10 | CCC1(O)COCc2c1[nH]c(=O)c1sc(-c3cn[nH]c3)cc21 (single isomer, unassigned) [Compound 19]
44 | > 10 | CC1(CO)OCCc2c1[nH]c(=O)c1sc(-c3cn[nH]c3)cc21 (single isomer, unassigned) [Compound 34]
45 | ≤ 1 | CC1(CO)OCCc2c1[nH]c(=O)c1sc(-c3cn[nH]c3)cc21 (single isomer, unassigned) [Compound 35]
46 | > 10 | O=c1[nH]c2c(c3cc(-c4cn[nH]c4)sc13)CCCC2(O)C(F)F (single isomer, unassigned) [Compound 36]
47 | 1 to 10 | O=c1[nH]c2c(c3cc(-c4cn[nH]c4)sc13)COCC2(O)C(F)F (single isomer, unassigned) [Compound 43]
48 | > 10 | COCC1(O)CC(F)(F)Cc2c1[nH]c(=O)c1sc(-c3cn[nH]c3)cc21 (single isomer, unassigned) [Compound 48]
49 | ≤ 1 | COCC1(O)CC(F)(F)Cc2c1[nH]c(=O)c1sc(-c3cn[nH]c3)cc21 (single isomer, unassigned) [Compound 49]
50 | 1 to 10 | CCC1(O)CC(F)(F)Cc2c1[nH]c(=O)c1sc(-c3cn[nH]c3)cc21 (single isomer, unassigned) [Compound 50]
51 | 1 to 10 | COC1(C)CC(F)(F)Cc2c1[nH]c(=O)c1sc(-c3cn[nH]c3)cc21 (single isomer, unassigned) [Compound 52]
52 | ≤ 1 | COC1(C)CC(F)(F)Cc2c1[nH]c(=O)c1sc(-c3cn[nH]c3)cc21 (single isomer, unassigned) [Compound 53]
53 | ≤ 1 | CC1(O)CC(F)(F)Cc2c1[nH]c(=O)c1sc(-c3cn[nH]c3)cc21 (single isomer, unassigned) [Compound 54]
54 | 1 to 10 | CC1(O)CC(F)(F)Cc2c1[nH]c(=O)c1sc(-c3cn[nH]c3)cc21 (single isomer, unassigned) [Compound 55]
55 | > 10 | CCC(C)C1(O)COCc2c1[nH]c(=O)c1sc(-c3cn[nH]c3)cc21 (single isomer, unassigned) [Compound 74]
56 | > 10 | CCC(C)C1(O)COCc2c1[nH]c(=O)c1sc(-c3cn[nH]c3)cc21 (single isomer, unassigned) [Compound 75]
57 | ≤ 1 | CC[C@@H](C)[C@@]1(O)COCc2c1[nH]c(=O)c1sc(-c3cn[nH]c3)cc21 (single isomer, unassigned) [Compound 76]
58 | ≤ 1 | CC[C@H](C)[C@]1(O)COCc2c1[nH]c(=O)c1sc(-c3cn[nH]c3)cc21 (single isomer, unassigned) [Compound 77]
